Experiment [1] addresses Glucagon-like peptide 1 receptor (Homo sapiens, UniProt P43220). As to the kind of experiment: Agonist activity at GLP-1R (unknown origin) expressed in HEK293 cells assessed as cAMP accumulation incubated for 30 mins by HTRF method. Format: functional, cell-based.
Another experiment deals with Glucagon receptor (Homo sapiens, UniProt P47871). Description: Agonist activity at GCGR (unknown origin) expressed in HEK293 cells assessed as cAMP accumulation incubated for 30 mins by HTRF method. Format: functional, cell-based. On the technique in general: Changes in cAMP serve as a functional read-out for many G protein-coupled receptors.
Sequence of Glucagon receptor (P47871 whole entry): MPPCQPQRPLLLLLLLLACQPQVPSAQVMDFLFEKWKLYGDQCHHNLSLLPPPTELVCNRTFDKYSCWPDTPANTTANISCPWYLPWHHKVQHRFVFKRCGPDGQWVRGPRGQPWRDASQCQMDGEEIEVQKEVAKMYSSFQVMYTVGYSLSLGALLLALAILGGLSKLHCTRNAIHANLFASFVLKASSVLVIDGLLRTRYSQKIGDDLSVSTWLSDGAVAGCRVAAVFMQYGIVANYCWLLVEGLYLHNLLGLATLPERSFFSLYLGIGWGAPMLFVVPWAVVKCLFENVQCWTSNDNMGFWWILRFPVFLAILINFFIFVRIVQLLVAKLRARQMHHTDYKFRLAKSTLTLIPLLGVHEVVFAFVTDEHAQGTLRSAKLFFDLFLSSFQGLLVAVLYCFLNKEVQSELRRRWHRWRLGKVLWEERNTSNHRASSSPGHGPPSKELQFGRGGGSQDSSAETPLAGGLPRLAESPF
Experiment [2] relates to Mus musculus. Description: Antiobesity activity in ICR mouse assessed as reduction in food intake at […], sc measured upto 24 hrs in presence of Lys7(C16-gammaGlu)PYY3-36. In kind it is functional. Details: scale not given: the % may be the effect or the level left.
Experiment [3] deals with Mus musculus. Description: Hypoglycemic activity in ICR mouse at 30 nmol/kg, ip pretreated with JNJ-31020028 for 30 mins prior to compound addition for 30 mins followed by glucose addition and measured upto 120 mins by OGTT. The settings on record: time <= 150.0 min. In kind it is functional, organism-based.
For experiment [4], the system named is Mus musculus. Description: Antiobesity activity in ICR mouse assessed as reduction in food intake at […], sc measured upto 24 hrs. Format: functional. Details: scale not given: the % may be the effect or the level left.
For experiment [5], the system named is Mus musculus. Description: Anti-obesity activity in C57BL/6J mouse model of high-fat diet induced obesity assessed as decrease in body weight at 30 nmol/kg, sc administered twice daily for 7 days. Format: functional. The arrangement: scale not given: the % may be the effect or the level left. The settings on record: time 7 day.
For experiment [6], the system named is Mus musculus. As to the kind of experiment: Anorexigenic effect in ICR mouse assessed as inhibition of food intake at 30 nmol/kg, ip pretreated with Jant-4 for 30 mins followed by compound addition for 30 mins. Format: functional, organism-based.
Experiment [7] relates to Mus musculus. Description: Reduction in liver TG level in C57BL/6J mouse at 30 nmol/kg, sc administered for 21 days. In kind it is functional, organism-based. The settings on record: time 21.0 day.
The test system of experiment [8] is Mus musculus. As to the kind of experiment: Reduction in serum AST level in C57BL/6J mouse at 30 nmol/kg, sc administered for 21 days. Format: functional, organism-based. The settings on record: time 21.0 day.
The test system of experiment [9] is Mus musculus. Description: Anti-obesity activity in C57BL/6J mouse model of high-fat diet induced obesity assessed as decrease in body weight at 30 nmol/kg, sc administered twice daily for 7 days in presence of 60 nmol/kg Lys7(C16-gammaGlu)PYY3-36. Format: functional. Details: scale not given: the % may be the effect or the level left. The settings on record: time 7 day.

Experiment [10] concerns Mus musculus. Description: Reduction in saccharin consumption in ip dosed ICR mouse assessed as reduction in saccharin preference ratio pretreated for 40 mins with saccharin followed by compound addition. Format: functional, organism-based.
In experiment [11] the test system is Mus musculus. Description: Reduction in liver TC level in C57BL/6J mouse at 30 nmol/kg, sc administered for 21 days. Format: functional, organism-based. The settings on record: time 21.0 day.
The subject of experiment [12] is Mus musculus. Description: Hypoglycemic activity in ICR mouse assessed as decrease in blood glucose level at 30 nmol/kg, ip pretreated for 30 mins followed by glucose addition and measured upto 120 mins by OGTT. The settings on record: time <= 150.0 min. Format: functional, organism-based.
The subject of experiment [13] is Mus musculus. As to the kind of experiment: Anti-diabetic activity in C57BL/6J mouse model of high-fat diet induced obesity assessed as improved in glucose tolerance at 30 nmol/kg, sc administered twice daily for 7 days in presence of 60 nmol/kg Lys7(C16-gammaGlu)PYY3-36. Format: functional, organism-based. The settings on record: time 7.0 day.
Experiment [14] relates to Mus musculus. As to the kind of experiment: Reduction in serum ALT level in C57BL/6J mouse at 30 nmol/kg, sc administered for 21 days. Format: functional, organism-based. The settings on record: time 21.0 day.
The subject of experiment [15] is Mus musculus. Description: Antiobesity activity in ICR mouse assessed as reduction in body weight at 30 nmol/kg, sc administered twice daily. Details: scale not given: the % may be the effect or the level left. Format: functional.
Experiment [16] relates to Mus musculus. As to the kind of experiment: Antiobesity activity in C57BL/6J mouse assessed as reduction in body weight at 10 nmol/kg, sc after 21 days. Format: functional. Details: scale not given: the % may be the effect or the level left. The settings on record: time 21 day.
For experiment [17], the system named is Mus musculus. As to the kind of experiment: Anti-obesity activity in C57BL/6J mouse model of high-fat diet induced obesity assessed as decrease in food intake at 30 nmol/kg, sc administered twice daily for 7 days in presence of 60 nmol/kg Lys7(C16-gammaGlu)PYY3-36. Format: functional, organism-based. The settings on record: time 7.0 day.
The test system of experiment [18] is Mus musculus. As to the kind of experiment: Hypoglycemic activity in ICR mouse at 30 nmol/kg, ip pretreated with Jant-4 for 30 mins prior to compound addition for 30 mins followed by glucose addition and measured upto 120 mins by OGTT. Format: functional, organism-based. The settings on record: time <= 150.0 min.
In experiment [19] the test system is Mus musculus. As to the kind of experiment: Hypoglycemic activity in ICR mouse assessed as decrease in blood glucose level at 30 nmol/kg, ip pretreated for 30 mins followed by glucose addition and measured upto 120 mins in presence of 60 nmol/kg Lys7(C16-gammaGlu)PYY3-36 by OGTT. Format: functional, organism-based. The settings on record: time <= 150.0 min.

The subject of experiment [20] is Mus musculus. Description: Hypoglycemic activity in ICR mouse assessed as reduction in glucose excursion at 30 nmol/kg, ip measured upto 120 mins. In kind it is functional, organism-based.

Active and inactive are the calls of the source. The rule behind the calls is not given here.

Sequence of Glucagon-like peptide 1 receptor (P43220 whole entry): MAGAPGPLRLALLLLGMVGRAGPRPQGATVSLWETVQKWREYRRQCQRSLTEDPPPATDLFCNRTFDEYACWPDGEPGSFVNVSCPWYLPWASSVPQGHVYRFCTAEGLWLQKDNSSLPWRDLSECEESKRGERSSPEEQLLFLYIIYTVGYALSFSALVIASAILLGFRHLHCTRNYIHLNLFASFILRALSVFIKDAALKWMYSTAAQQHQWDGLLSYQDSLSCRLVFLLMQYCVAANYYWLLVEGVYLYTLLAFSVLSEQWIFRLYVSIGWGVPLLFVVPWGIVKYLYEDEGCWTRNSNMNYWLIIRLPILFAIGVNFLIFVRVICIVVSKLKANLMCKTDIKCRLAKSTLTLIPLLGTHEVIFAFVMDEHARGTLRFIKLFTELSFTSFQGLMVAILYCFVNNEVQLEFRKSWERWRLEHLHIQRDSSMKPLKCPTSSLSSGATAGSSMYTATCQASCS

Broadly, the EC50 is the concentration giving half of the maximal effect. For the compound `CC[C@H](C)[C@H](NC(=O)[C@H](Cc1ccccc1)NC(=O)[C@H](CC(=O)O)NC(=O)[C@H](CCC(N)=O)NC(=O)[C@H](C)NC(=O)[C@H](CCCNC(=N)N)NC(=O)[C@H](CCCNC(=N)N)NC(=O)[C@H](CO)NC(=O)[C@H](CC(=O)O)NC(=O)[C@H](CCCCN)NC(=O)[C@H](Cc1ccc(O)cc1)NC(=O)[C@H](CCCCN)NC(=O)[C@H](CO)NC(=O)[C@@H](NC(=O)[C@H](CC(=O)O)NC(=O)[C@H](CC(N)=O)NC(=O)[C@@H](NC(=O)[C@H](Cc1ccc(O)cc1)NC(=O)[C@@H](NC(=O)CNC(=O)[C@H](CCC(N)=O)NC(=O)[C@@H](CO)NC(=O)[C@@H](N)Cc1c[nH]cn1)[C@@H](C)O)[C@@H](C)O)C(C)C)C(=O)N[C@@H](CCC(=O)O)C(=O)N[C@@H](Cc1c[nH]c2ccccc12)C(=O)N[C@@H](CC(C)C)C(=O)N[C@@H](CCCCN)C(=O)N[C@@H](CC(N)=O)C(=O)NCC(=O)NCC(=O)N1CCC[C@H]1C(=O)N[C@@H](CO)C(=O)N[C@@H](CO)C(=O)NCC(=O)N[C@@H](C)C(=O)N1CCC[C@H]1C(=O)N1CCC[C@H]1C(=O)N1CCC[C@H]1C(=O)N[C@@H](CO)C(=O)N[C@@H](CS)C(N)=O`, the EC50 in experiment [1] came out at 0.048 nM; at Glucagon receptor it was 0.19 nM.

Take `CCCCCCCCCCCCCCCC(=O)N[C@@H](CCC(=O)NCCCC[C@H](NC(=O)[C@H](Cc1ccc(O)cc1)NC(=O)[C@H](CCCCN)NC(=O)[C@H](CO)NC(=O)[C@@H](NC(=O)[C@H](CC(=O)O)NC(=O)[C@H](CC(N)=O)NC(=O)[C@@H](NC(=O)[C@H](Cc1ccc(O)cc1)NC(=O)[C@@H](NC(=O)CNC(=O)[C@H](CCC(N)=O)NC(=O)[C@@H](CO)NC(=O)[C@@H](N)Cc1c[nH]cn1)[C@@H](C)O)[C@@H](C)O)C(C)C)C(=O)N[C@@H](CC(=O)O)C(=O)N[C@@H](CO)C(=O)N[C@@H](CCCNC(=N)N)C(=O)N[C@@H](CCCNC(=N)N)C(=O)N[C@@H](C)C(=O)N[C@@H](CCC(N)=O)C(=O)N[C@@H](CC(=O)O)C(=O)N[C@@H](Cc1ccccc1)C(=O)N[C@H](C(=O)N[C@@H](CCC(=O)O)C(=O)N[C@@H](Cc1c[nH]c2ccccc12)C(=O)N[C@@H](CC(C)C)C(=O)N[C@@H](CCCCN)C(=O)N[C@@H](CC(N)=O)C(=O)NCC(=O)NCC(=O)N1CCC[C@H]1C(=O)N[C@@H](CO)C(=O)N[C@@H](CO)C(=O)NCC(=O)N[C@@H](C)C(=O)N1CCC[C@H]1C(=O)N1CCC[C@H]1C(=O)N1CCC[C@H]1C(=O)N[C@@H](CO)C(N)=O)[C@@H](C)CC)C(=O)O`: the Activity in the experiment with Mus musculus [2] is 66%; with Mus musculus [4], 35%; with Mus musculus [5], 16.6%; in the experiment on Mus musculus [9] it was 28.5%; in the experiment on Mus musculus [10] it was “Dose-Dependent Effect”; in the experiment on Mus musculus [15], 15.6%. Besides, the Activity with Mus musculus [16] stood at 27%. The result with Mus musculus [3], in the experiment on Mus musculus [6] and with Mus musculus [18] was inactive. The result with Mus musculus [7], in the experiment with Mus musculus [8], with Mus musculus [11], in the experiment on Mus musculus [12], with Mus musculus [13] and with Mus musculus [14] was Active. In addition, the result with Mus musculus [17], in the experiment with Mus musculus [19] and with Mus musculus [20] was Active.

As to `CC[C@H](C)[C@H](NC(=O)[C@H](Cc1ccccc1)NC(=O)[C@H](CC(=O)O)NC(=O)[C@H](CCC(N)=O)NC(=O)[C@H](C)NC(=O)[C@H](CCCNC(=N)N)NC(=O)[C@H](CCCNC(=N)N)NC(=O)[C@H](CO)NC(=O)[C@H](CC(=O)O)NC(=O)[C@H](CCCCN)NC(=O)[C@H](CCC(N)=O)NC(=O)[C@H](CCCCN)NC(=O)[C@H](CO)NC(=O)[C@H](CC(C)C)NC(=O)[C@H](CC(=O)O)NC(=O)[C@H](CO)NC(=O)[C@@H](NC(=O)[C@H](Cc1ccccc1)NC(=O)[C@@H](NC(=O)CNC(=O)[C@H](CCC(N)=O)NC(=O)[C@@H](CO)NC(=O)[C@@H](N)Cc1c[nH]cn1)[C@@H](C)O)[C@@H](C)O)C(=O)N[C@@H](CCC(=O)O)C(=O)N[C@@H](Cc1c[nH]c2ccccc12)C(=O)N[C@@H](CC(C)C)C(=O)N[C@@H](CCCCN)C(=O)N[C@@H](CC(N)=O)C(=O)NCC(=O)NCC(=O)N1CCC[C@H]1C(=O)N[C@@H](CO)C(=O)N[C@@H](CO)C(=O)NCC(=O)N[C@@H](C)C(=O)N1CCC[C@H]1C(=O)N1CCC[C@H]1C(=O)N1CCC[C@H]1C(=O)N[C@@H](CO)C(=O)N[C@@H](CS)C(N)=O`, the EC50 in experiment [1] came to 0.087 nM; at Glucagon receptor it was 0.42 nM.

Values taken from ChEMBL document CHEMBL5352484, “Discovery of a potent and long-acting Xenopus GLP-1-based GLP-1/glucagon/Y2 receptor triple agonist” (Eur J Med Chem, 2023).
